Test systems include BT-549 breast; OVCAR-5 ovarian; HS 578T breast; A498 renal; SNB-75 CNS; NCI-H23 lung; SK-MEL-2 melanoma.
What all share (experiment): NCI anticancer screen, dose series, 48 h

Values joined by “and” are separate entries in the source; they are usually repeats but may differ in a detail not shown here. Identical values can stand only once.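 These data come from cells grown in 96-well plates and exposed to compound for 48 hours at five concentrations. GI50 = concentration required for 50% inhibition of growth. TGI: concentration producing complete growth inhibition.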

With `COc1ccc(/C=C2\COc3ccc(-c4ccccc4)cc3C2=O)cc1O`, the GI50 with BT-549 breast is 1.69 µM; with OVCAR-5 ovarian it was 4.13 µM; in the assay with HS 578T breast it was 2.72 µM; with A498 renal, 2.4 µM; in the assay with SNB-75 CNS, 2.71 µM; in the assay with NCI-H23 lung, 4.09 µM. The GI50 in the assay on SK-MEL-2 melanoma was 2.17 µM. Further, the TGI stood at 5.57 µM in the assay with BT-549 breast; 14.7 µM with OVCAR-5 ovarian; 7.56 µM in the assay with HS 578T breast; 6.1 µM in the assay with A498 renal; 8.77 µM in the assay on SNB-75 CNS; 16.6 µM in the assay on NCI-H23 lung. Also, the TGI with SK-MEL-2 melanoma came to 6.1 µM.
Turning to `Cc1nc(NC(=O)N2CCC[C@H]2C(N)=O)sc1-c1ccnc(C(C)(C)C(F)(F)F)c1`, the GI50 is 4.91 µM and 6.33 µM with BT-549 breast; 0.776 µM and 1.02 µM with OVCAR-5 ovarian; 1.34 µM and 2.07 µM in the assay with A498 renal; 0.594 µM in the assay with SNB-75 CNS; 10.2 µM and > 10 µM with NCI-H23 lung; 6.94 µM and > 10 µM in the assay on SK-MEL-2 melanoma. For the same compound, the TGI in the assay with BT-549 breast was 44.6 µM and > 10 µM; with OVCAR-5 ovarian, 57.4 µM and > 10 µM; in the assay on HS 578T breast it was 21.2 µM and 3.1 µM; in the assay with A498 renal it was 5.62 µM and 9.99 µM; in the assay with SNB-75 CNS, 15.5 µM; with NCI-H23 lung, 61.9 µM and > 10 µM. The TGI in the assay with SK-MEL-2 melanoma is 24.1 µM and > 10 µM.
Regarding `NC(CSC(c1ccccc1)(c1ccccc1)c1ccc2ccccc2c1)C(=O)O` (stereo not given), the GI50 with BT-549 breast is 0.144 µM; in the assay on OVCAR-5 ovarian, 0.323 µM; in the assay with HS 578T breast, 0.0267 µM; in the assay with A498 renal, 0.0529 µM; with SNB-75 CNS, 0.121 µM; in the assay on NCI-H23 lung, 0.131 µM. For the same compound, the GI50 with SK-MEL-2 melanoma was 1.29 µM. Besides, the TGI in the assay on BT-549 breast worked out at 22.8 µM; in the assay on OVCAR-5 ovarian it was 16.9 µM; in the assay with HS 578T breast, 0.0832 µM; in the assay with A498 renal, 3.79 µM; in the assay on SNB-75 CNS, 30.6 µM; in the assay with NCI-H23 lung, 16.4 µM. In the assay on SK-MEL-2 melanoma, the TGI amounted to 30 µM.
Turning to `CCNCC(O)c1ccc(N)c([N+](=O)[O-])c1` (stereo not given), the TGI in the assay on BT-549 breast, in the assay on OVCAR-5 ovarian, in the assay with HS 578T breast, in the assay with A498 renal, with SNB-75 CNS and in the assay with NCI-H23 lung was above 100 µM in each case. Also, the TGI with SK-MEL-2 melanoma is above 100 µM.
As for `O=C(/C=C/c1cccc(Cl)c1)c1ccc(Cl)cc1Cl`, the GI50 was 8.94 µM in the assay with BT-549 breast; 12.2 µM in the assay with OVCAR-5 ovarian; 13.2 µM in the assay with HS 578T breast; 9.71 µM with A498 renal; 9.5 µM in the assay with SNB-75 CNS; 10.2 µM in the assay on NCI-H23 lung. For the same compound, the GI50 in the assay with SK-MEL-2 melanoma is 11.8 µM. Besides, the TGI with BT-549 breast is 20.7 µM; with OVCAR-5 ovarian, 27.2 µM; in the assay with HS 578T breast, 40.1 µM; in the assay with A498 renal it was 27.7 µM; in the assay with SNB-75 CNS it was 30.1 µM; with NCI-H23 lung, 19.3 µM. This compound also displayed a TGI with SK-MEL-2 melanoma of 33 µM.
Turning to `O=[As](O)(O)c1ccc(Cc2ccc([As](=O)(O)O)cc2)cc1`, the TGI with BT-549 breast amounted to 3.09 µM; in the assay with OVCAR-5 ovarian, 4.65 µM; in the assay with HS 578T breast it was 12.4 µM; in the assay on A498 renal, 3.96 µM; with SNB-75 CNS, 3.12 µM; in the assay on NCI-H23 lung, 2.26 µM. This compound gave a TGI in the assay with SK-MEL-2 melanoma of 2.87 µM.
As to `O=C1/C(=C/c2cccs2)CCC/C1=C\c1cccs1`, the GI50 was above 58.3 µM in the assay on BT-549 breast; above 100 µM in the assay with OVCAR-5 ovarian; 29.2 µM in the assay on HS 578T breast; 31.4 µM in the assay on A498 renal; 16.9 µM in the assay on SNB-75 CNS; above 83.8 µM with NCI-H23 lung. Besides, in the assay on SK-MEL-2 melanoma, the GI50 is 47.8 µM. The TGI with BT-549 breast was above 100 µM; with OVCAR-5 ovarian, above 100 µM; with HS 578T breast, above 100 µM; with A498 renal, above 100 µM; with SNB-75 CNS, 81.4 µM; in the assay with NCI-H23 lung, above 100 µM. Further, in the assay on SK-MEL-2 melanoma, the TGI is above 100 µM.
On to `Oc1ccccc1-n1c(-c2ccccc2)ccc1-c1ccccc1`, for which the GI50 was 13.4 µM with BT-549 breast; 15.2 µM in the assay on OVCAR-5 ovarian; 14 µM with HS 578T breast; 7.49 µM in the assay on A498 renal; 4.46 µM with SNB-75 CNS; 4.79 µM in the assay on NCI-H23 lung. For the same compound, the GI50 in the assay on SK-MEL-2 melanoma was 4.63 µM. For the same compound, the TGI with BT-549 breast was 89.5 µM; with OVCAR-5 ovarian, 48.7 µM; in the assay on HS 578T breast, above 100 µM; in the assay on A498 renal, 35.8 µM; with SNB-75 CNS it was 21.5 µM; in the assay on NCI-H23 lung it was 33.3 µM. Further, in the assay with SK-MEL-2 melanoma, the TGI came to 19.4 µM.
As for `CC(=O)Oc1cccc2c1C(=O)c1c(OC(C)=O)cc(C)cc1C2=O`, the TGI with BT-549 breast, with OVCAR-5 ovarian, in the assay with HS 578T breast, in the assay on A498 renal, with SNB-75 CNS and in the assay on NCI-H23 lung was above 100 µM throughout. In addition, in the assay on SK-MEL-2 melanoma, the TGI is above 100 µM.
Consider `COc1ccc2c3c(c(OCCCN(C)C)nc2c1)-c1ccc(Cl)cc1C3=O`, for which the GI50 is 14.2 µM in the assay with BT-549 breast; 9.66 µM with OVCAR-5 ovarian; 13.3 µM with HS 578T breast; 5.66 µM with A498 renal; 1.55 µM with SNB-75 CNS; 11 µM in the assay with NCI-H23 lung. The GI50 in the assay with SK-MEL-2 melanoma was 19.6 µM. Also, the TGI was found to be 28.3 µM with BT-549 breast; 22.9 µM with OVCAR-5 ovarian; 34.3 µM with HS 578T breast; 16.5 µM with A498 renal; 18.3 µM with SNB-75 CNS; 25.3 µM in the assay on NCI-H23 lung. This compound returned a TGI in the assay with SK-MEL-2 melanoma of 40.3 µM.
For the compound `CC(C)C(N)(C(=O)O)c1ccccc1` (stereo not given), the TGI with BT-549 breast, in the assay on OVCAR-5 ovarian, in the assay with HS 578T breast, in the assay on A498 renal, in the assay on SNB-75 CNS and in the assay with NCI-H23 lung was above 100 µM throughout. This compound had a TGI in the assay with SK-MEL-2 melanoma above 100 µM.

Values taken from PubChem BioAssay (NCI).
